According to PMC7450938, “Prenatal to early postnatal neurotrophic treatment prevents Alzheimer-like behavior and pathology in mice” (Alzheimer's Research & Therapy, 2020):

Key:
APP = experiment: Western blots of p-APP (Thr668) in hippocampus; assay type: in vivo, mouse; conditions: 22-month-old 3xTg-AD mice, normalized with GAPDH, n = 4, P021 diet E8-PND21
Protocol: (§1) We treated 2- to 3-month-old pregnant 3xTg-AD and WT mothers with compound P021 in mouse chow, or with vehicle feed as control at E8 until their offspring/pups reached PND21, at which point the offspring were separated and put on standard mouse chow (Fig. 1). Treatment was administered as 60 nmol peptide/g formulated diet (Research Diets; New Brunswick, NJ, USA). The vehicle-treated control animals received the same diet but without the peptide. On average, each mouse consumed ~ 2.7 g diet/day.
The tissue from the left cerebral hemisphere from each mouse stored at− 80 °C was homogenized in a Teflon-glass homogenizer to generate 10% (w/v) homogenate. […] Each homogenate was boiled in 2× Laemmli sample buffer for 5 min, and protein concentration was measured by PierceTM 660-nm protein assay (Thermo Scientific; Rockford, IL, USA).
The samples were subjected to 10% SDS-PAGE and electro-transferred onto Immobilon-P membranes (EMD Millipore; Billerica, MA, USA). […] Densitometric quantification of protein bands in Western blots was analyzed using Multi Gauge version 3.0 software (FUJIFILM North America; Valhalla, NY, USA).

Iba-1, GFAP = experiment: Western blots of Iba-1 and GFAP in hippocampus; assay type: in vivo, mouse; conditions: for increase of GFAP: 3xTg-AD mice, P021 diet E8-PND21, n = 3-4/group; for expression of Iba-1: among groups
Protocol: as §1
The tissue from the left cerebral hemisphere from each mouse stored at− 80 °C was homogenized in a Teflon-glass homogenizer to generate 10% (w/v) homogenate. The pre-chilled homogenization buffer contained 50 mM Tris–HCl (pH 7.4), 8.5% sucrose, 2 mM EDTA, 2 mM EGTA, 10 mM β-mercaptoethanol plus the following protease and phosphatase inhibitors: 0.5 mM AEBSF, 10 μg/mL aprotinin, 10 μg/mL leupeptin, 4 μg/mL pepstatin, 5 mM benzamidine, 20 mM β-glycerophosphate, 50 mM sodium fluoride, 1 mM sodium orthovanadate, and 100 nM okadaic acid. Each homogenate was boiled in 2× Laemmli sample buffer for 5 min, and protein concentration was measured by PierceTM 660-nm protein assay (Thermo Scientific; Rockford, IL, USA).
The samples were subjected to 10% SDS-PAGE and electro-transferred onto Immobilon-P membranes (EMD Millipore; Billerica, MA, USA). The blots were then probed with primary antibodies (Table 1) and developed with the corresponding HRP-conjugated secondary antibody and enhanced chemiluminescence (Pierce Biotechnology, Rockford, IL, USA). Densitometric quantification of protein bands in Western blots was analyzed using Multi Gauge version 3.0 software (FUJIFILM North America; Valhalla, NY, USA).

[1] = commercial service (APREDICA, Watertown, MA); cited from earlier work
3xTg-AD mice = experiment: Novel object recognition test; assay type: in vivo, mouse; conditions: 3xTg-AD offspring, 3-4 months; P021 diet 60 nmol/g E8-PND21; 20-min delay, 5-min test phase; 3xTg-Vh vs 3xTg-P021 P = 0.0007
Protocol: Pregnant 3xTg-AD and wild-type (WT) mice were treated with compound P021 in mouse chow, or as control with vehicle feed from gestational day 8 (E8) till their offspring/pups reached PND21, at which point the offspring were separated from their mother and put on normal mouse chow (Fig. 1). There were four study groups of mice, as follows: offspring of WT treated with vehicle diet (WT-Vh, n = 10), offspring of WT treated with P021 diet (WT-P021, n = 17), offspring of 3xTg-AD treated with vehicle diet (3xTg-Vh, n = 12), and offspring of 3xTg-AD treated with P021 diet (3xTg-P021, n = 18). Elevated plus maze, novel object recognition test, and Morris water maze were carried out consecutively from postnatal day 90 with all of mice. About 50% (4 animals/group) of the female offspring (n = 7–8 animals/group) were sacrificed at 4 months of age and the remaining 50% (3–4 animals/group) at 22 months of age. […]
The novel object recognition memory task has been used to evaluate hippocampus-dependent memory in rodents through an evaluation of the differences in the exploration time of novel and familiar objects. […] The object discrimination index (DI) during the test phase was calculated as DI = [(time spent exploring the new object − time spent exploring the old object)/(time spent exploring both old and new objects)] × 100%.

GFAP = GFAP immunofluorescence, CA1; assay type: in vivo, mouse; conditions: P021 diet E8-PND21
Protocol: as §1
The complete right hemisphere was immersion-fixed in 4% paraformaldehyde in 0.1 M PBS for 24–48 h, followed by cryoprotection in a 30% sucrose solution at 4 °C overnight. Later, the 40-μm-thick sagittal sections were cut on a freezing microtome. […]
Immunofluorescence staining was performed on free-floating sections, and every 12th brain section was chosen for densitometry and quantification. For immunohistochemical quantification, six brain sections of four animals per group were analyzed. All stainings for fluorescence-intensity quantification were carried out under identical conditions, including all tissue samples for a particular staining processed at the same time, and experimental and control sections photographed under identical settings. […]

[2] = test system: Ts65Dn trisomic Down syndrome mouse model; conditions: Ts65Dn mice, prenatal to early postnatal treatment; cited from earlier work
From the text: The prenatal to early postnatal period is highly susceptible to epigenomic dysregulation with implications for health. […] Stress and hormones, such as glucocorticoids, testosterone, and estradiol, mediate the development of the brain during critical prenatal and early postnatal periods.

Ac-DGGL^AG-NH2 [P021, 4-mer CNTF small molecule peptide mimetic to which adamantylated glycine was added at the C-terminal]
level of phosphorylation of APP at Thr668 (APP): rescued | increase of GFAP (Iba-1, GFAP; 4 months): rescued | expression of Iba-1 (Iba-1, GFAP; 4 months): no significant changes | increase of GFAP (Iba-1, GFAP; 22 months): rescued | expression of Iba-1 (Iba-1, GFAP; 22 months): no significant changes | crossing of the blood-brain barrier [1]: enough P021 crossed the BBB to exert its effect in the brain | discrimination index in the test phase (3xTg-AD mice): improved | astrocyte morphology at high magnification (GFAP; CA1, 22-month-old 3xTg-AD mice, 3xTg-Vh astrocytes amoeboid): ramified with long processes and small cell body (resting phenotype) | GFAP immunoreactivity (GFAP; CA1 region, 22-month-old 3xTg-AD mice): rescued | developmental delay and cognitive impairment at adult age [2]: rescues developmental delay and at adult age cognitive impairment
